Reference: US4803272A (priority 1987, dated 1989)
pIC50: −log10 of the molar value. Structures can show the parent of a compound that is named as a salt.

Experiments:
[1] = test system: human alpha [leucocyte] interferon; details: mdbk cells
spermidine synthase = target: T1, spermidine synthase (Homo sapiens, UniProt P19623); test: Spermidine synthase inhibiting activity; assay type: biochemical; details: pH 8.2, 37°, 10 min, 20 μM decarboxylated S-adenosyl-L-methionine
T1 sequence (P19623 1-302): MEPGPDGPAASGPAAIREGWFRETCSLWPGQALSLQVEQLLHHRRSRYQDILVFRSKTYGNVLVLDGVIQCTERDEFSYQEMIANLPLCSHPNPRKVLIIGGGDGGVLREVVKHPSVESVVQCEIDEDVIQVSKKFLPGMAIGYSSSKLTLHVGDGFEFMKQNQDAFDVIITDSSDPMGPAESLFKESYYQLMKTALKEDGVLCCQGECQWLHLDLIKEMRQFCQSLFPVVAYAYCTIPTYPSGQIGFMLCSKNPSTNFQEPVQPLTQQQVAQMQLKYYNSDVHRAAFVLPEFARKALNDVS
Experimental: Reactions were initiated by the addition of enzyme and incubated for 10 minues at 37° . The reactions were stopped by the additions of 5 μL of 100 mM spermidine and 5 μL of a slurry of 160 mg/mL of Darco G60 in water. The mixtures were centrifuged at 10,000×g for 2 minutes and a 40 μL aliquot of the supernate counted. Blank reactions were run using zero incubation time, or omitting enzyme or putrescine.
This assay made use of the adsorption of unreacted substrate, decarboxylated S-adenosyl-L-methionine, on charcoal while leaving the product polyamine in solution.

[2] = test system: vesicular stomatitis virus [VSV], New Jersey strain; assay type: cell-based; details: without interferon; Maden-Darby bovine kidney cells
B16 melanoma cells = details: DFMO in combination with interferon; cited from earlier work
human gamma interferon = assay type: cell-based
human beta interferon = assay type: cell-based

| Compound | potentiation of human alpha interferon [1] | pIC50 (spermidine synthase) | antiviral activity of compound by itself against VSV [2] | suppression of tumor growth of B16 melanoma cells (B16 melanoma cells) | potentiation of human alpha [leucocyte] interferon [1] | potentiation of human gamma interferon (human gamma interferon) | potentiation of human beta interferon (human beta interferon) |
| --- | --- | --- | --- | --- | --- | --- | --- |
| NCCCCCC(CCN)SC[C@@H]1C[C@H](n2cnc3c(N)ncnc32)[C@@H](O)[C@H]1O (relative stereo) [Example 3, 1,t-(9-adenyl)-2,c-3,c-dihydroxy-4,t-[2-thia-3-(2-aminoethyl)-8-aminooctyl]cyclopentane hydrochloride] | 2 × | 5.70 | no antiviral activity |  |  |  |  |
| NCCC[C@](N)(C(=O)O)C(F)F [DFMO, α-difluoromethyl ornithine] |  |  |  | total or near total suppression |  |  |  |
| NCCCCCC(CCN)SCCOCn1cnc2c(N)ncnc21 (stereo not shown) [Example 1, 9-[2-oxa-5-thia-6-(2-aminoethyl)-11-aminoundecyl]-6-aminopurine] | 8 × | ~4.00 | no antiviral activity |  | 2 × | 4 × | 16 × |
